Measurements published in patent US20120232062A1, “AZAINDAZOLES TO TREAT FLAVIVIRIDAE VIRUS INFECTION” (EIGER BIOPHARMACEUTICALS, INC., priority 2009, published 2012).
Like-named read-outs stand apart in the source and are kept apart here.

Key:
Caco-2 cell line = assay: Caco-2 permeability testing; assay type: in vitro ADME, human; set-up: Efflux (first figure of Efflux/permeability), Papp (B-A) / Permeability (second figure of Efflux/permeability), Papp (A-B): unit not given here; details: for Permeability (second figure of Efflux/permeability), Papp (A-B): Caco-2, A-B; for Permeability (second figure of Efflux/permeability), Papp (A-B) / Efflux (first figure of Efflux/permeability), Papp (B-A): 90 min; for Efflux (first figure of Efflux/permeability), Papp (B-A): Caco-2, B-A; for intestinal absorption predicted by in vitro PK profiles: in words
Excerpt: Intestinal epithelium permeability is a critical characteristic that determines the rate and extent of human absorption and affects bioavailability of a drug candidate. Poor intestinal permeability leads to limited absorption. Generally, higher absorption is preferred. The Caco-2 cell line is a human colon adeno-carcinoma cell line that resembles the epithelial lining of the human small intestine. Several transport proteins that are expressed in human intestinal epithelium are also expressed in the Caco-2 cell model. Some transporter proteins are efflux systems which mediate the secretion of compounds from inside the cell back to the apical lumen (representative of the intestinal lumen), limiting overall absorption. In a permeability assay, the apparent permeability coefficient is measured between the apical to basolateral sides of a cell monolayer, Papp (A-B), and the basolateral to the apical side, Papp (B-A). Papp (A-B)<2×10^−6 cm/s is predictive of low permeability to the basolateral side, 2×10^−6 cm/s<Papp (A-B)<20×10^−6 cm/s is predictive of medium permeability, and Papp (A-B)>20×10^−6 cm/s is predictive of high permeability. In the B-A permeability assay, Papp (B-A) is measured and compounds evaluated for efflux potential. Together, these assay results are reported as a ratio of Papp (B-A) to Papp (A-B). Papp (B-A)/Papp (A-B)>3 are likely to be transported by one of the efflux systems, and have poor absorption. Papp (B-A)/Papp (A-B)<3 are likely to show reasonable intestinal absorption. An in vitro drug absorption assay suitable for use in predicting intestinal absorption of the compounds useful in the methods of the invention is described in this example. The embodiments of this assay described in this example were developed by Shanghai ChemPartner Co., Ltd., a corporation of China with its principal office located at 720 Cailun Road, Building No. 3, Shanghai 201203, China.
Caco-2 (ATCC, catalog No. HTB-37™) cells are cultured in growth medium (MEM+10% FBS+1% NEAA). The growth medium is prepared by adding 50 mL FBS and 5 mL NEAA to 445 mL of MEM or by adjusting the final volume according to actual needs. Trypsin-EDTA (Invitrogen, Cat #25200-072) is also used.
Hanks Balanced Salt Solution (HBSS, Invitrogen, Cat #14025-092) with 25 mM HEPES, pH 7.4, HBSS buffer with 0.2% DMSO (50 μL DMSO into 25 ml HBSS buffer), and HBSS buffer with 0.4% DMSO (100 μL DMSO into 25 ml HBSS buffer) are used.
10 mM stock solutions of a compound is prepared in DMSO and Lucifer Yellow in assay buffer using the formula (Actual Weight/Molecular Weight)/mL solvent=10 mM. Erythromycin, Metoprolol, and Atenolol are used as reference compounds. Donor solutions (10 μM for compounds and 5 μM for Lucifer Yellow) are prepared. For A-B, 4 μL of 10 mM compound stock solution and 2 μL of 10 mM Lucifer Yellow stock solution are loaded into 4 mL of HBSS buffer, and centrifuged (5 min, 4000 rpm) to precipitate undissolved particles. Supernatants are collected for compound dosing. For B-A, 4 μL (compounds) of 10 mM compound stock solution is added to 4 mL HBSS buffer with 0.2% DMSO, and centrifuged (5 min, 4000 rpm) to precipitate undissolved particles. Supernatants are collected for compound dosing.
Receiver solutions are prepared. For A-B, the solution is HBSS buffer with 0.4% DMSO. For B-A, 2 μL of 10 mM Lucifer Yellow stock solution is added to 4 mL of HBSS buffer with 0.2% DMSO. Compound solutions are prepared for standard curve (3 μM/1 μM/0.2 μM/0.04 μM/0.01 μM/0.005 μM):
1× solution: 3 μL of 20× solution (0.1-60 μM)+57 μL 0.4% DMSO HBSS+60 μL acetonitrile (ACN) with internal standard (IS, 200 ng/mL Osalmid). The assay was performed as described below
Stock cultures are maintained in MEM+10% FBS+1% NEAA, grown in 75 cm^2 tissue culture treated flasks and split (passed) 2 times weekly to maintain desired confluence. For maintenance passage, trypsinized cells are routinely distributed into new flasks at a standard passage ratio of 1:4. […]

[1] = In vivo rat pharmacokinetic studies; details: for concentration in liver, fold above the EC50: rat liver after PO 20 or 40 mpk, for qd dosing
Excerpt: In vivo rat pharmacokinetic studies are designed to measure bioavailability, tissue distribution and metabolite identification in rats after intravenous (IV) and oral (PO) dosing. A full PK study typically includes two study arms (IV and PO) and takes serial blood samples from multiple animals per compound. The assay as described in this example was developed by BioDuro, a corporation of China with its principal office located at Building E, No. 29 Life Science Park Road, Changping District, Beijing, 102206, P.R. China.
Each compound was singly dosed both IV (1 mpk (mg/kg) to rats 1-3) and PO (20 or 40 mpk to rats 4-18), followed by blood draws and liver concentration studies (for PO dosed rats) from each animal at each time point.

[2] = 20 mg/kg, rat, PO 20 mpk, liver/plasma, read-out: L/P Ratio
[3] = liver, 20 mg/kg, rat, PO 20 mpk, read-out: Liver
[4] = plasma, 20 mg/kg, rat, PO 20 mpk vs IV 1 mpk
[5] = plasma, 20 mg/kg, rat, PO 20 mpk, read-out: Plasma
[6] = 40 mg/kg, rat, PO 40 mpk, liver/plasma, read-out: L/P Ratio
[7] = liver, 40 mg/kg, rat, PO 40 mpk, read-out: Liver
[8] = plasma, 40 mg/kg, rat, PO 40 mpk, read-out: Plasma

Row | SMILES | Permeability (second figure of Efflux/permeability), Papp (A-B) (Caco-2 cell line) | Efflux (first figure of Efflux/permeability), Papp (B-A) (Caco-2 cell line) | intestinal absorption predicted by in vitro PK profiles (Caco-2 cell line) | Kp at 0.25 h [1, 2] | Kp at 1 h [1, 2] | Kp at 4 h [1, 2] | concentration at 0.25 h [1, 3] [ng/g] | concentration at 1 h [1, 3] [ng/g] | concentration at 4 h [1, 3] [ng/g] | concentration at 8 h [1, 3] [ng/g] | concentration at 24 h [1, 3] [ng/g] | bioavailability [1, 4] [%] | concentration at 0.25 h [1, 5] [ng/mL] | concentration at 1 h [1, 5] [ng/mL] | concentration at 4 h [1, 5] [ng/mL] | concentration at 8 h [1, 5] [ng/mL] | concentration at 24 h [1, 5] [ng/mL] | concentration in liver, fold above the EC50 [1] | further results
1 | Cn1nc(C(=O)NC2CCN(CCN3CCCCC3)CC2)c2ccc(N3CCCCCC3)nc21 [EBP1047] | 11 | 8 | moderate intestinal absorption | 78.3 | 558 | 261 | 382 | 14000 | 2670 | 563 | 5.35 | 9 | 5.1 | 24.1 | 10.4 | 2.9 | 0 | 2-60 fold | Efflux/Permeability ratio (desired <3) (Caco-2 cell line; Caco-2, Papp (B-A)/Papp (A-B)): 0.8; Kp at 8 h [1, 2]: 182; Liver Conc (range) ([1]; rat, PO 20 mpk, over the period given): 1 to 30 µM
2 | CCN1CCC(NC(=O)c2nn(C)c3nc(N4CCCCCC4)ccc23)CC1 [EBP1595] | 15 | 14 | moderate intestinal absorption | 652 | 172 | 67 | 1900 | 12400 | 1400 | 132 | 0 | 9 | 1.6 | 96.4 | 14 | 0 | 0 | 2-32 fold | 
3 | Cn1nc(C(=O)NC2CCN(CCN3CCCC3)CC2)c2ccc(N3CCCCCC3)nc21 [EBP1597] | 9 | 7 | moderate intestinal absorption |  |  |  |  |  |  |  |  |  |  |  |  |  |  | 2-18 fold | Kp at 0.25 h [1, 6]: 1670; Kp at 4 h [1, 6]: 717; Kp at 8 h [1, 6]: 582; Kp at 12 h ([1]; 40 mg/kg, rat, PO 40 mpk, 12 h, liver/plasma, read-out: L/P Ratio): 527; concentration at 0.25 h [1, 7]: 2620 ng/g; concentration at 4 h [1, 7]: 8120 ng/g; concentration at 8 h [1, 7]: 1500 ng/g; concentration at 12 h ([1]; liver, 40 mg/kg, rat, PO 40 mpk, 12 h, read-out: Liver): 1030 ng/g; liver concentration range at 12 h ([1]; liver, 40 mg/kg, rat, PO 40 mpk, over the period given, read-out: Liver Conc (range)): 2 to 18 µM; bioavailability ([1]; plasma, 40 mg/kg, rat, PO 40 mpk vs IV 1 mpk): 9%; concentration at 0.25 h [1, 8]: 1.6 ng/mL; concentration at 4 h [1, 8]: 10.3 ng/mL; concentration at 8 h [1, 8]: 2.6 ng/mL; concentration at 12 h ([1]; plasma, 40 mg/kg, rat, PO 40 mpk, 12 h, read-out: Plasma): 2.5 ng/mL; Liver Conc (range) ([1]; rat, PO 40 mpk, over the period given): 2 to 18 µM
4 | CC(C)N1CCC(NC(=O)c2nn(C)c3nc(N4CCCCCC4)ccc23)CC1 [EBP1604] |  |  | moderate intestinal absorption | 618 | 275 |  | 915 | 4870 | 203 | 43 | 0 | 2 | 0.8 | 17.9 | 0 | 0 | 0 | up to 6 fold | Liver Conc (range) ([1]; rat, PO 20 mpk, over the period given, 20 mg/kg): 2 to 12 µM
